Source: PMC6595003, “Insights into real-time chemical processes in a calcium sensor protein-directed dynamic library” (Nature Communications, 2019)
Several values for one entry are separate records, joined by “and”; a condition that tells them apart may be missing. Equal values may be shown once.

What was measured:
dNCS-1 [1] = target: T1, dNCS-1 (Drosophila melanogaster, UniProt Q9VWX8); assay: Protein-directed DCL, HPLC-MS relative peak area with and without dNCS-1; details: for RPA, Blank DCL / RPA, Templated DCL: as fraction of total area; for RPA, Templated DCL: with dNCS-1; for RPA (%) with protein (templated DCL): relative peak area in presence of dNCS-1; for RPA (%) without protein (blank DCL): relative peak area, sum of all peak areas set to 100%; for RPA (%), Blank DCL: sheet Supplementary Figure 10; for RPA (%), Templated DCL: sheet Supplementary Figure 10, with dNCS-1
T1 construct: made in house; host or cells: E. coli
T1 sequence (Q9VWX8 1-187): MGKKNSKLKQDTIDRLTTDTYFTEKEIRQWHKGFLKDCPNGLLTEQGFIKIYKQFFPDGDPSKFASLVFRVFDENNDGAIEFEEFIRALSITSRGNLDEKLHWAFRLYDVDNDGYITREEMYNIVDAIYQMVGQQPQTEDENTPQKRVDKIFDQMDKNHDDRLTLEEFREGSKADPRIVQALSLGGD
Protocol: The reversibility of the DCL was evident, since an identical equilibrium distribution to that shown in Fig. 4a was obtained when two different starting points were employed. The observed degree of amplification was 3b > 3e ≥ 3d > 3a. The precise composition of the DCL (with and without dNCS-1), was assessed by measuring the relative peak area (RPA). Indeed, the normalized change of RPA was used to quantify the protein influence in the final outcome (Supplementary Figs. 9, 10 and Supplementary Tables 1, 2 and 3)[28]. […] Note that compounds 3a–3e can exist as E/Z isomers of the C = N bond. […].
Aldehyde 1 (1.2 μL, 50 mM, DMSO), the five acylhydrazides 2a–2e (5 × 3.6 μL, 50 mM, DMSO), p-anisidine (1 μL, 12 M, DMSO) and buffer 20 mM Tris, 0.5 M NaCl and 1 mM CaCl2, 1 mM DTT at pH 7.4 (750 μL) in 3.3 % DMSO. The mixture was stabilized in 5 h at 4 °C. HPLC analysis was performed.
Aldehyde 1 (1.2 μL, 50 mM, DMSO), the five acylhydrazides 2a–2e (5 × 3.6 μL, 50 mM, DMSO), p-anisidine (1 μL, 12 mM, DMSO) and dNCS-1 in buffer 20 mM Tris, 0.5 M NaCl and 1 mM CaCl2, 1 mM DTT at pH 7.4 (66.7 μM, 750 μL, 1 eq.). The experiment is in 3.3% DMSO. The mixture was stabilized for 5 h at 4 °C. Then, dNCS-1 was removed by ultrafiltration using an Amicon Ultra filter (0.5–10 KDa). HPLC analysis was performed and the traces were compared with the blank composition.
Supplementary Figure 9. Relative Peak Area of the DCL with and without dNCS1. Aldehyde
1 (1.2 µL, 50 mM), 2a-e (3.6 µL, 50 mM), catalyst (1 µL, 12 M), dNCS-1:1 [1:1], tris buffer (20
mM, pH 7.4), 1 mM CaCl2, 0.5 M NaCl, 1 mM DTT, T = 4 °C, 2% DM SO. Mean relative peak
area (RPA) of each acylhydrazone of the library in the absence (blank) and presence of dNCS-1.
Error bars indicate standard deviation (SD) over three experiments. The calculation is set by the
sum of all peak areas to 100% and assigning each peak its percentage. Source data are provided
R P A N o rm aliz ed V a riation
Supplementary Figure 10. RPA normalized of variation of DCL with and without dNCS1.
Aldehyde 1 (1.2 µL, 50 mM), 2a-e (3.6 µL, 50 mM), catalyst (1 µL, 12 M), dNCS-1:1 [1:1], tris
buffer (20 mM, pH 7.4), 1 mM CaCl2, 0.5 M NaCl, 1 mM DTT, T = 4 °C, 2% DM SO. Error
bars indicate SD over three experiments. Source data are provided as a Source Data file.

dNCS-1 [2] = target: T1, dNCS-1; assay: tr-NOESY, DOSY and 1H-NMR of DCL mixtures in the presence of dNCS-1; format: binding; details: 281 K, up to 15 days
Protocol: Fig. 4 HPLC-MS and NMR studies of the full dynamic combinatorial library. a DCL chromatograms after 5 h in the absence and in the presence of dNCS-1. Conditions: aldehyde 1 (1.2 µL, 50 mM), 2a–2e (3.6 µL, 50 mM), catalyst (1 µL, 12 M), dNCS-1:1 [1:1], Tris buffer (20 mM, pH 7.4), 1 mM CaCl2, 0.5 M NaCl, 1 mM DTT, T = 4 °C, 2% DMSO. DCC experiments were carried out in triplicate. b 1D-^1H NMR spectrum (red) of the mixture and DOSY experiment (black) of the DCL in the presence of dNCS-1 (281 K, 600 MHz). c Tr-NOESY spectrum of the DCL mixture in the presence of dNCS-1 (mixing time 200 ms, 281 K, 600 MHz). Amplification of the region δ 7.2–8.0 ppm. […]. The new signals that reveal the formation of 3b (aromatic region) and 2c (aliphatic region) are marked with stars. ^1H-STD-NMR (blue) and off-resonance (red) NMR spectra of the mixture 2b + 3c + dNCS-1 (281 K, 600 MHz) after 15 days
DOSY-NMR and tr-NOESY-NMR experiments were also recorded to follow the exchange process.
The experiments were performed on the same samples and spectrometer, at 281 K. The tr-NOESY mixing time was fixed at 200 ms. The DOSY experiments were acquired with 16 gradient increments to a final intensity decay of 90%.

[3] = pH 7.9
Protocol: Fluorescence-based experiments with 3a–3e were carried out to estimate their affinity to dNCS-1.

dNCS-1 [4] = target: T1, dNCS-1; assay: STD-NMR experiments with dNCS-1; format: binding; details: compound 1 mM, 10 μM dNCS-1, 281 K
Protocol: Fig. 5 ^1H-STD-NMR spectra of 3a–3e in the presence of dNCS-1. STD (blue) and off-resonance (red) NMR spectra acquired for compounds 3a–3e (1 mM) in the presence of 10 μM dNCS-1 (600 MHz, 281 K). Relative STD intensities are coded according to the color scale shown. The 100% STD signal corresponds to the resonance showing the highest intensity in each case and all other STD signals are calculated accordingly
The experiments were performed using a deuterated Tris (pH 7.9) buffered solution with an aliquot of DMSO-d6. A sample containing 10 μM of dNCS-1 and 1 mM of DCL species (molar ratio 1:100) was prepared. The STD experiments were acquired at 281 K on a Bruker Avance 600 MHz spectrometer equipped with a cryoprobe. […]. The same conditions were used for the acquisition of the STD-NMR spectra of the individual products with dNCS-1.

Compound: O=C(Cc1c[nH]c2ccccc12)NN=Cc1ccc([N+](=O)[O-])c(O)c1 (mixture of isomers) [3b]
- RPA, Blank DCL (dNCS-1 [1]): 0.1921
- RPA, Templated DCL (dNCS-1 [1]): 0.2944
- RPA (%) with protein (templated DCL) (dNCS-1 [1]): 29.4% and 29.4401%
- RPA (%) without protein (blank DCL) (dNCS-1 [1]): 19.2% and 19.208%
- RPA (%), Blank DCL (dNCS-1 [1]): 19.2%
- RPA (%), Templated DCL (dNCS-1 [1]): 29.4%
- binding to dNCS-1 (1H-NMR evolution of the mixture 3c + 2b with dNCS-1) (dNCS-1 [2]): a dNCS-1 ligand
- solubility observed under the experimental conditions [3]: soluble
- recognition by dNCS-1 in STD-NMR (dNCS-1 [4]): largest STD intensities

Compound: O=C(NN=Cc1ccc([N+](=O)[O-])c(O)c1)C(O)c1ccccc1 (mixture of isomers) [3d]
- RPA, Blank DCL (dNCS-1 [1]): 0.1114
- RPA, Templated DCL (dNCS-1 [1]): 0.0839
- RPA (%) with protein (templated DCL) (dNCS-1 [1]): 8.4% and 8.39%
- RPA (%) without protein (blank DCL) (dNCS-1 [1]): 11.1% and 11.1444%
- RPA (%), Blank DCL (dNCS-1 [1]): 11.1%
- RPA (%), Templated DCL (dNCS-1 [1]): 8.39%

Compound: O=C(N/N=C/c1ccc([N+](=O)[O-])c(O)c1)c1ccco1 [3a]
- RPA, Blank DCL (dNCS-1 [1]): 0.2727
- RPA, Templated DCL (dNCS-1 [1]): 0.1875
- RPA (%) with protein (templated DCL) (dNCS-1 [1]): 18.8% and 18.7508%
- RPA (%) without protein (blank DCL) (dNCS-1 [1]): 27.3% and 27.2702%
- RPA (%), Blank DCL (dNCS-1 [1]): 27.3%
- RPA (%), Templated DCL (dNCS-1 [1]): 18.8%
